# Measured values taken from patent EP4570798A1, “AROMATIC HETEROCYCLIC CYCLOHEXYL AMINOALKYL PIPERIDINE DERIVATIVE, PREPARATION METHOD AND USE THEREOF” (Jiangsu NHWA Pharmaceutical Co., Ltd, priority 2022, dated 2024).
# Tests used:
# [1] = target: T1, Dopamine D3 receptor (Homo sapiens, UniProt P35462); assay: In vitro dopamine D3 receptor function experiment (CHO-K1/D3/CRE reporter, chemiluminescence); assay type: cell-based; settings: for EC50: forskolin 0.4 µM; for Emax: maximum activation rate
# T1 construct: expressed in transfected cells; host or cells: CHO-K1
# T1 sequence (P35462 whole entry, species assumed): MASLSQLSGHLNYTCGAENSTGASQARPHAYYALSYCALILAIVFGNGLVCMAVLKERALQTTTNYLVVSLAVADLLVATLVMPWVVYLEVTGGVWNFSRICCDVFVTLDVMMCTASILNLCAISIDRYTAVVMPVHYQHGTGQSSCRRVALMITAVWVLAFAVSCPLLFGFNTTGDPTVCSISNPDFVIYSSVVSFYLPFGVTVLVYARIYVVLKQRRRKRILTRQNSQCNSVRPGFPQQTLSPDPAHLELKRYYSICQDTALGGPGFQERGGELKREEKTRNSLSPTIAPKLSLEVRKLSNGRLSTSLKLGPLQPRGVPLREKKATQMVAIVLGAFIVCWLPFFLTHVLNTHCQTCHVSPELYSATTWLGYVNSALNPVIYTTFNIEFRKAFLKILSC
# Experimental: 3.1.1 Cell information: CHO-K1/D3/CRE constructed by referring to the method in Example 5 of CN114369578A.
# The first day: cell plating • (1) The cultured cells were digested with trypsin, and after the digestion was terminated with culture medium, the cell suspension was transferred to a centrifuge tube and centrifuged at 750 rpm for 5 min. • (2) The supernatant was discarded, and the pellet was resuspended in an appropriate amount of plating medium.
# The following day: experimental detection • (1) The test compounds were diluted to 0.2 mM with DMSO, and the reference compound dopamine was diluted to 0.02 mM. • (2) Compound dilution (4-fold dilution at 8 concentration points) was performed using Bravo, with the starting concentrations of the test compounds and the reference compound being 5 µM and 500 nM, respectively. […] The program selected was an ultrasensitive chemiluminescence detection program.
# [2] = target: T2, 5-HT1A (Homo sapiens, UniProt P08908); assay: In vitro 5HT1A receptor function experiment (cAMP, forskolin-stimulated HEK293/5HT1A cells); assay type: cell-based; set-up: expressed in transfected cells; host or cells: HEK293; settings: for EC50: forskolin 1 µM; for Emax: maximum activation rate
# T2 sequence (P08908 1-422): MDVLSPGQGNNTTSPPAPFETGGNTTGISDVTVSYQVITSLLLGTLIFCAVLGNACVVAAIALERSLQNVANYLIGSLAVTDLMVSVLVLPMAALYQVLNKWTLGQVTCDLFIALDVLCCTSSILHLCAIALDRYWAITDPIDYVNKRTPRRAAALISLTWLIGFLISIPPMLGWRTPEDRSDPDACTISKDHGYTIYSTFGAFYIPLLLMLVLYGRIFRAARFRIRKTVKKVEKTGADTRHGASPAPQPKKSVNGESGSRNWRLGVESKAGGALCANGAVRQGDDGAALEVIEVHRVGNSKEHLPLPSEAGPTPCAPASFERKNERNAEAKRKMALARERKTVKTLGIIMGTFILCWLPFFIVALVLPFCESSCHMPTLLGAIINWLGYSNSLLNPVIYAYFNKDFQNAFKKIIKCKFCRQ
# Experimental: 1.1.1 Cell information: HEK293/5HT1A: a stably transfected cell strain HEK293/5HT1A constructed by adopting 5HT1A receptor lentivirus to infect HEK293; growth culture medium: DMEM, 10% FBS, and 0.6 µg/mL puro; and cryopreservation culture medium: 70% culture medium, 20% FBS, and 10% DMSO.
# [3] = In vitro liver microsome stability, SD rat; settings: for CLint(liver): SD rat liver microsomes; for CLint scaled at 1 µM / half-life at 1 µM / microsomal CLint at 1 µM: SD, rat, liver microsomes, pH 7.4
# Experimental: (§1) • (1) Buffer preparation: 73.21 g of dipotassium hydrogen phosphate trihydrate and 10.78 g of potassium dihydrogen phosphate were dissolved in 4000 mL of ultrapure water. The pH of the solution was adjusted to within 7.40 ± 0.10 using 10% phosphoric acid or 1 M potassium hydroxide, resulting in a final concentration of 100 mM. • (2) Solution preparation and dilution: Stock solutions of the test compounds at a concentration of 10 mM were prepared in dimethyl sulfoxide (DMSO) and stored at 4 °C, and they were diluted into 100 µM working solutions with pure acetonitrile when used. A stock solution of the control compound testosterone at a concentration of 10 mM was prepared in DMSO and stored at -20 °C, and it was diluted into a 400 µM working solution with pure acetonitrile when used. • (3) Termination solution preparation: The termination solution was acetonitrile containing the internal standard buspirone. The prepared termination solution was stored in a refrigerator at 2-8 °C. • (4) Liver microsome solution preparation: Microsomes from various species (CD-1 mouse, SD rat, and human) were diluted into a 20× working solution using 100 mM potassium phosphate buffer. The final concentration of the microsomes in the reaction system was 0.5 mg/mL. • (5) Reduced nicotinamide adenine dinucleotide phosphate (NADPH) regeneration system preparation: Appropriate amounts of nicotinamide adenine dinucleotide phosphate (NADP), glucose-6-phosphate (G6P), magnesium chloride (MgCl2), and glucose-6-phosphate dehydrogenase (G6PDH) were weighed to prepare stock solutions at concentrations of 65.33 mM, 330 mM, 300 mM, and 250 Units/mL, respectively. The four stock solutions described above were each added to an appropriate amount of buffer, and the mixture was mixed well by gently inverting up and down. […] Several incubation plates were prepared and named T0, T5, T10, T20, T40, T60, PB60, and NCF60, respectively. […] The NCF60 plate was incubated for 60 min with potassium phosphate buffer replacing the NADPH regeneration system solution. The PB60 plate was incubated for 60 min with potassium phosphate buffer replacing the liver microsomes. Samples under all conditions were prepared in triplicate.
# (§2) 2 µL of the test compound or control compound and 100 µL of microsome working solution (containing 1 mg/mL liver microsome protein) were added to each of the T0, T5, T10, T20, T40, T60, and NCF60 plates, and 2 µL of the test compound and 100 µL of potassium phosphate buffer were added to the PB60 plate. The plates described above were then pre-incubated in a 37 °C water bath for about 5 min.
# (§3) After the pre-incubation, 600 µL of the termination solution was first added to the T0 samples, followed by the addition of 98 µL of NADPH regeneration system working solution. The plate was sealed, shaken, and then allowed to wait for simultaneous processing with subsequent samples. Except for the NCF60 plate where 98 µL of potassium phosphate buffer was added to each sample well, 98 µL of NADPH regeneration system working solution was added to each sample well of the other incubation plates to initiate the reaction. In the reaction system, the final concentrations of the test compound and the control compound were 1 µM and 4 µM, respectively, the concentration of the liver microsomes was 0.5 mg/mL, and the final concentrations of DMSO and acetonitrile were 0.01% (v/v) and 0.99% (v/v), respectively.
# (§4) After incubation for an appropriate time (such as 5, 10, 20, 40, and 60 min), 600 µL of the termination solution containing the internal standard was added to each test compound sample and control compound well to terminate the reaction. The plates were sealed, shaken well, and then centrifuged at 4000 ×g and 4 °C for 15 min.
# [4] = In vitro liver microsome stability, CD-1 mouse; settings: for CLint scaled at 1 µM / half-life at 1 µM / microsomal CLint at 1 µM: CD-1, mouse, liver microsomes, pH 7.4; for CLint(liver): CD-1 mouse liver microsomes
# Experimental: as §1, §2, §3, §4
# [5] = In vitro liver microsome stability, human; settings: for CLint(liver): Human liver microsomes; for CLint scaled at 1 µM / half-life at 1 µM / microsomal CLint at 1 µM: human, liver microsomes, pH 7.4
# Experimental: as §1, §2, §3, §4
SMILES,EC50 [1] [nM],Emax [1] [%],EC50 [2] [nM],Emax [2] [%],further results
"CCCN(CC1CCN(c2cccc(Cl)c2Cl)CC1)[C@H]1CCc2nc(N)sc2C1 [Example 7, (S)-N^6-((1-(2,3-Dichlorophenyl)piperidin-4-yl)methyl)-N^6-propyl-4,5,6,7-tetrahydrobenzo[d]thiazole-2,6-diamine]",2.9,122,,,
"CCCN(CC1CCN(c2cccc3sccc23)CC1)[C@@H]1CCc2nc(N)sc2C1 [Example 11, (R)-N^6-((1-(Benzo[b]thiophen-4-yl)piperidin-4-yl)methyl)-N^6-propyl-4,5,6,7-tetrahydrobenzo[d]thiazole-2,6-diamine]",3.3,109,130,92.6,
"CCCN(CC1CCN(c2cccc3sccc23)CC1)C1CCc2nc(N)sc2C1 (centres unmarked) [Example 12, N^6-((1-(Benzo[b]thiophen-4-yl)piperidin-4-yl)methyl)-N^6-propyl-4,5,6,7-tetrahydrobenzo[d]thiazole-2,6-diamine]",,,31.4,115,
"CCN(CC1CCN(c2cccc3sccc23)CC1)[C@H]1CCc2nc(N)sc2C1 [Example 13, (S)-N^6-((1-(Benzo[b]thiophen-4-yl)piperidin-4-yl)methyl)-N^6-ethyl-4,5,6,7-tetrahydrobenzo[d]thiazole-2,6-diamine]",3,133,35.9,118,
"CCCN(CC1CCN(C(=O)c2ccc(F)c(Cl)c2)CC1)[C@H]1CCc2nc(N)sc2C1 [Example 15, (S)-(4-(((2-Amino-4,5,6,7-tetrahydrobenzo[d]thiazol-6-yl)(propyl)amino)methyl)piperidin-1-yl)(3-chloro-4-fluorophenyl)methanone]",,,4.7,85.1,
"CCCN(CCC1CCN(C(=O)c2ccc(F)c(Cl)c2)CC1)[C@H]1CCc2nc(N)sc2C1 [Example 16, (S)-(4-(2-((2-Amino-4,5,6,7-tetrahydrobenzo[d]thiazol-6-yl)(propyl)amino)ethyl)piperidin-1-yl)(3-chloro-4-fluorophenyl)methanone]",,,143,93.7,
"CCCN(CC1CCN(C(=O)c2ccc(F)c(Cl)n2)CC1)[C@H]1CCc2nc(N)sc2C1 [Example 18, (S)-(4-(((2-Amino-4,5,6,7-tetrahydrobenzo[d]thiazol-6-yl)(propyl)amino)methyl)piperidin-1-yl)(6-chloro-5-fluoropyridin-2-yl)methanone]",,,48,115,
"CCCN(CC1CCN(C(=O)c2ccc(F)nc2)CC1)[C@H]1CCc2nc(N)sc2C1 [Example 19, (S)-(4-(((2-Amino-4,5,6,7-tetrahydrobenzo[d]thiazol-6-yl)(propyl)amino)methyl)piperidin-1-yl)(6-fluoropyridin-3-yl)methanone]",,,184,99.5,
"CCCN(CC1CCN(C(=O)c2ccc(C#N)nc2)CC1)[C@H]1CCc2nc(N)sc2C1 [Example 20, (S)-5-(4-(((2-Amino-4,5,6,7-tetrahydrobenzo[d]thiazol-6-yl)(propyl)amino)methyl)piperidine-1-carbonyl)pyridinecarbonitrile]",,,131,115,
"CCCN(CC1CCN(C(=O)c2cc3ccccc3[nH]2)CC1)[C@H]1CCc2nc(N)sc2C1 [Example 21, (S)-(4-(((2-Amino-4,5,6,7-tetrahydrobenzo[d]thiazol-6-yl)(propyl)amino)methyl)piperidin-1-yl)(1H-indol-2-yl)methanone]",1.3,105,,,
"CCCN(CC1CCN(C(=O)c2cc3ccccc3s2)CC1)[C@H]1CCc2nc(N)sc2C1 [Example 22, (S)-(4-(((2-Amino-4,5,6,7-tetrahydrobenzo[d]thiazol-6-yl)(propyl)amino)methyl)piperidin-1-yl)(benzo[b]thiophen-2-yl)methanone]",,,99.3,115,
"CCCN(CC1CCN(C(=O)c2ccc3ccccc3c2)CC1)[C@H]1CCc2nc(N)sc2C1 [Example 23, (S)-(4-(((2-Amino-4,5,6,7-tetrahydrobenzo[d]thiazol-6-yl)(propyl)amino)methyl)piperidin-1-yl)(naphthalen-2-yl)methanone]",,,202,101,
"CCCN(CC1CCN(C(=O)c2cccs2)CC1)[C@H]1CCc2nc(N)sc2C1 [Example 24, (S)-(4-(((2-Amino-4,5,6,7-tetrahydrobenzo[d]thiazol-6-yl)(propyl)amino)methyl)piperidin-1-yl)(thiophen-2-yl)methanone]",,,75.7,96.5,CLint(liver) [3]: 75.2 mL/min/K g; CLint scaled at 1 µM [3]: 23.7 to 129 mL/min/kg; half-life at 1 µM [3]: 0.553 h; microsomal CLint at 1 µM [3]: 41.8 µL/min/mg; CLint scaled at 1 µM [4]: 38.6 to 210 mL/min/kg; half-life at 1 µM [4]: 0.782 h; microsomal CLint at 1 µM [4]: 29.6 µL/min/mg; CLint(liver) [4]: 117.1 mL/min/K g; CLint(liver) [5]: 34.3 mL/min/K g; CLint scaled at 1 µM [5]: 8.9 to 48.3 mL/min/kg; half-life at 1 µM [5]: 0.607 h; microsomal CLint at 1 µM [5]: 38.1 µL/min/mg
"CCCN(CC1CCN(C(=O)c2ccco2)CC1)[C@H]1CCc2nc(N)sc2C1 [Example 25, (S)-(4-(((2-Amino-4,5,6,7-tetrahydrobenzo[d]thiazol-6-yl)(propyl)amino)methyl)piperidin-1-yl)(furan-2-yl)methanone]",1.3,106,41.9,112,
"CCCN(CC1CCN(C(=O)c2ccc[nH]2)CC1)[C@H]1CCc2nc(N)sc2C1 [Example 26, (S)-(4-(((2-Amino-4,5,6,7-tetrahydrobenzo[d]thiazol-6-yl)(propyl)amino)methyl)piperidin-1-yl)(1H-pyrrol-2-yl)methanone]",1.2,109,16.4,103,
"CCCN(CC1CCN(C(=O)c2cncs2)CC1)[C@H]1CCc2nc(N)sc2C1 [Example 27, (S)-(4-(((2-Amino-4,5,6,7-tetrahydrobenzo[d]thiazol-6-yl)(propyl)amino)methyl)piperidin-1-yl)(thiazol-5-yl)methanone]",,,87.3,99.9,CLint(liver) [3]: 25.5 mL/min/K g; CLint scaled at 1 µM [3]: 23.7 to 129 mL/min/kg; half-life at 1 µM [3]: 1.63 h; microsomal CLint at 1 µM [3]: 14.2 µL/min/mg; CLint scaled at 1 µM [4]: 38.6 to 210 mL/min/kg; half-life at 1 µM [4]: 1.43 h; microsomal CLint at 1 µM [4]: 16.2 µL/min/mg; CLint(liver) [4]: 64.0 mL/min/K g; CLint(liver) [5]: 14.7 mL/min/K g; CLint scaled at 1 µM [5]: 8.9 to 48.3 mL/min/kg; half-life at 1 µM [5]: 1.42 h; microsomal CLint at 1 µM [5]: 16.3 µL/min/mg
"CCCN(CC1CCN(C(=O)C2CCCCC2)CC1)[C@H]1CCc2nc(N)sc2C1 [Example 29, (S)-(4-(((2-Amino-4,5,6,7-tetrahydrobenzo[d]thiazol-6-yl)(propyl)amino)methyl)piperidin-1-yl)(cyclohexyl)methanone]",2.8,111,107,118,
"CCCN(CC1CCN(S(=O)(=O)c2ccccc2)CC1)[C@H]1CCc2nc(N)sc2C1 [Example 30, (S)-N^6-((1-(Phenylsulfonyl)piperidin-4-yl)methyl)-N^6-propyl-4,5,6,7-tetrahydrobenzo[d]thiazole-2,6-diamine]",,,39.9,125,
"CCCN(CC1CCN(S(=O)(=O)c2ccc(F)c(Cl)c2)CC1)[C@H]1CCc2nc(N)sc2C1 [Example 31, (S)-N^6-((1-((3-Chloro-4-fluorophenyl)sulfonyl)piperidin-4-yl)methyl)-N^6-propyl-4,5,6,7-tetrahydrobenzo[d]thiazole-2,6-diamine]",3.6,103,124,120,
